Tests used:
Assay in all cases: relative viability (nuclei count vs DMSO), 5 days (fraction); higher = more cells survive
TPCA-1 + Luminespib = compound: C1=CC(=CC=C1C2=CC(=C(S2)NC(=O)N)C(=O)N)F [TPCA-1] + CCNC(=O)c1noc(-c2cc(C(C)C)c(O)cc2O)c1-c1ccc(CN2CCOCC2)cc1 [Luminespib] (partner 0.01 µM)
Summary of the method: (§1)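 A single step with final 0.05% Triton X-100, 1% formaldehyde and 1 ug/ml Hoechst fixed the cells and stained nuclei 5 days after treatment. Lung cancer cell lines in 1536-well plates had been treated by pin tool the day after seeding with one drug alone or a fixed anchor-drug dose plus five library-drug doses (not always all listed) in √10 steps, and nuclei were counted on 4× images. Relative viability is the ratio of nuclei in treated wells to nuclei in vehicle wells, taken as the median of duplicate plates.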

TPCA-1 + AZD7762 = compound: C1=CC(=CC=C1C2=CC(=C(S2)NC(=O)N)C(=O)N)F [TPCA-1] + NC(=O)Nc1cc(-c2cccc(F)c2)sc1C(=O)N[C@H]1CCCNC1 [AZD7762] (partner 0.2 µM)
Summary of the method: as §1

[1] = compound: C1/C(=C\C2=CC=CS2)/C(=O)/C(=C/C3=CC=CS3)/C1 + CC(=O)Nc1cccc(-n2c(=O)n(C3CC3)c(=O)c3c(Nc4ccc(I)cc4F)n(C)c(=O)c(C)c32)c1 [Trametinib] (partner 0.02 µM)
Summary of the method: as §1

[2] = compound: C1/C(=C\C2=CC=CS2)/C(=O)/C(=C/C3=CC=CS3)/C1 + Nc1nc2[nH]cc(CCc3ccc(C(=O)N[C@@H](CCC(=O)O)C(=O)O)cc3)c2c(=O)[nH]1 [Pemetrexed] (partner 0.2 µM)
Summary of the method: as §1

Cell Line | relative viability (TPCA-1 + Luminespib; first compound 0.04 µM) | relative viability (TPCA-1 + Luminespib; first compound 0.1265 µM) | relative viability (TPCA-1 + Luminespib; first compound 0.4 µM) | relative viability (TPCA-1 + Luminespib; first compound 1.265 µM) | relative viability (TPCA-1 + Luminespib; first compound 4 µM) | relative viability (TPCA-1 + AZD7762; first compound 0.04 µM) | relative viability (TPCA-1 + AZD7762; first compound 0.1265 µM) | relative viability (TPCA-1 + AZD7762; first compound 0.4 µM) | relative viability (TPCA-1 + AZD7762; first compound 1.265 µM) | relative viability (TPCA-1 + AZD7762; first compound 4 µM) | relative viability ([1]; first compound 0.2 µM) | relative viability ([1]; first compound 0.6325 µM) | relative viability ([1]; first compound 2 µM) | relative viability ([1]; first compound 6.325 µM) | relative viability ([1]; first compound 20 µM) | relative viability ([2]; first compound 0.2 µM) | relative viability ([2]; first compound 0.6325 µM) | relative viability ([2]; first compound 2 µM) | relative viability ([2]; first compound 6.325 µM) | relative viability ([2]; first compound 20 µM)
NCI-H2087 | 0.171 | 0.176 | 0.156 | 0.15 | 0.141 | 1.24 | 1.3 | 1.34 | 1.29 | 0.758 | 0.201 | 0.17 | 0.18 | 0.157 | 0.294 | 0.635 | 0.7 | 0.621 | 0.529 | 0.639
NCI-H522 | 1.13 | 0.946 | 1.22 | 1.15 | 0.84 | 0.898 | 0.904 | 0.857 | 0.853 | 0.894 | 0.726 | 0.728 | 0.715 | 0.739 | 0.767 | 1.04 | 0.916 | 1.17 | 0.988 | 0.957
EMC-BAC-2 | 1.24 | 1.13 | 1.16 | 1.35 | 1.13 | 1.15 | 1.09 | 1.27 | 1.03 | 0.72 | 1 | 0.854 | 0.939 | 0.864 | 0.952 | 0.449 | 0.467 | 0.443 | 0.391 | 0.447
NCI-H1355 | 0.788 | 0.747 | 0.841 | 0.715 | 0.465 | 0.831 | 0.7 | 0.756 | 0.675 | 0.707 | 0.42 | 0.43 | 0.457 | 0.341 | 0.407 | 1.06 | 0.922 | 1 | 0.96 | 0.971
NCI-H23 | 0.199 | 0.208 | 0.219 | 0.196 | 0.193 | 0.338 | 0.261 | 0.21 | 0.235 | 0.223 | 0.411 | 0.406 | 0.4 | 0.369 | 0.365 | 0.781 | 0.641 | 0.859 | 0.453 | 0.71
NCI-H1651 | 0.839 | 0.979 | 0.835 | 0.915 | 1 | 0.486 | 0.439 | 0.462 | 0.431 | 0.401 | 0.861 | 0.775 | 0.816 | 0.807 | 0.843 | 0.582 | 0.666 | 0.778 | 0.495 | 0.58
NCI-H1975 | 0.577 | 0.275 | 0.2 | 0.199 | 0.129 | 0.717 | 0.682 | 0.763 | 0.923 | 0.522 | 0.345 | 0.326 | 0.282 | 0.321 | 0.362 | 0.321 | 0.298 | 0.32 | 0.269 | 0.301
HCC-44 | 0.958 | 1.03 | 1.02 | – | 0.983 | 1 | 1.01 | 0.982 | 1.08 | 1.02 | 1.1 | 1.07 | 1.09 | 0.925 | 0.911 | 0.64 | 0.688 | 0.613 | 0.55 | 0.673
LOU-NH91 | 0.346 | 0.254 | 0.397 | 0.255 | 0.318 | 0.781 | 0.719 | 0.724 | 0.68 | 0.697 | 0.777 | 0.775 | 0.781 | 0.75 | 0.806 | 0.331 | 0.401 | 0.316 | 0.37 | 0.375
NCI-H441 | 0.448 | 0.414 | 0.386 | 0.297 | 0.19 | 1.21 | 0.915 | 1.19 | 1.04 | 1 | 0.607 | 0.429 | 0.552 | 0.446 | 0.418 | 0.273 | 0.261 | 0.264 | 0.27 | 0.264
NCI-H647 | 0.149 | 0.192 | 0.157 | 0.102 | 0.134 | 0.618 | 0.447 | 0.629 | 0.451 | 0.327 | 0.464 | 0.49 | 0.407 | 0.467 | 0.447 | 0.19 | 0.158 | 0.204 | 0.158 | 0.213
NCI-H1915 | 0.883 | 0.804 | 0.754 | 0.852 | 0.581 | 0.744 | 0.679 | 0.671 | 0.588 | 0.617 | 0.311 | 0.309 | 0.315 | 0.262 | 0.322 | 0.456 | 0.529 | 0.479 | 0.447 | 0.475
NCI-H1734 | 0.192 | 0.201 | 0.221 | 0.19 | 0.162 | 0.558 | 0.504 | 0.604 | 0.639 | 0.374 | 0.825 | 0.575 | 0.658 | 0.578 | 0.626 | 0.439 | 0.433 | 0.457 | 0.37 | 0.426
NCI-H1993 | 0.694 | 0.688 | 0.783 | 1.29 | 0.669 | 0.972 | 0.748 | 0.745 | 0.747 | 0.598 | 0.491 | 0.412 | 0.478 | 0.437 | 0.447 | 0.669 | 0.593 | 0.539 | 0.551 | 0.472
LK-2 | 0.216 | 0.188 | 0.216 | 0.175 | 0.167 | 0.593 | – | 0.53 | 0.392 | 0.131 | 0.643 | 0.968 | 0.809 | 0.712 | 0.707 | 0.273 | – | 0.354 | 0.282 | 0.276
NCI-H2405 | 0.792 | 0.627 | 0.709 | 0.622 | 0.618 | 0.859 | 0.738 | 0.877 | 0.79 | 0.648 | 0.688 | 0.578 | 0.603 | 0.585 | 0.699 | 1.08 | 0.96 | 1.2 | 1.01 | 1.04

Source: the supplement of paper PMC10307832
